In US20260265279A1, “RHO-ASSOCIATED PROTEIN KINASE INHIBITOR AND PREPARATION AND USE THEREOF” (Shanghai Zhimeng Biopharma, Inc, priority 2022, published 2026):

Tests used:
[1] = Pharmacokinetic study in male SD rats; format: in vivo; conditions: rat, plasma
Description: 1) Purpose of the Study: Obtain the Pharmacokinetic Characterization of the Compounds of the Present Invention in Male SD Rats
For each compound, 6 healthy male SD rats (weight range 200-250 g) was taken and divided into 2 groups of 3 each; Group 1 was administered intravenously in a single dose (see Table 2 for dosage) and Group 2 was administered orally in a single gavage (see Table 2 for dosage, fasted overnight before administration). Blood was collected by jugular vein or cardiac puncture at 0.083 (group 1 only), 0.25, 0.5, 1, 2, 4, 6 (group 2 only), 8 and 24 h after drug administration, respectively, and at least 0.2 mL of whole blood was collected from each sample into EDTA-K2 anticoagulant tubes, and the samples were mixed and placed on wet ice after sample collection, and then centrifuged to separate plasma (6,800 g, 6 min, 2-8° C.) at 1 h. The plasma samples were stored in ultra-low temperature refrigerators before analysis.
Experimental results: The pharmacokinetic parameters after administration were calculated from the blood concentration data obtained by LC-MS/MS assay using the non-compartmental model of WinNonlin® 7.0 software (Pharsight, Inc., USA) and are shown in the table below: […]

[2] = molecular target: T1, ROCK2 (Homo sapiens, UniProt O75116); experiment: Kinase IC50 assay, HTRF kinEASE STK S2 kit, ROCK2; format: biochemical; conditions: ATP 1 μM, 2.5 ng/well enzyme, 120 min
T1 construct: purchased Invitrogen PV3759
Description: (§1) Kinase IC50 assay was performed using the kinase assay kit HTRF kinEASE STK S2 kit (Cat #62ST2PEC, Cisbio). Kinases ROCK1 (Cat #PV3691) and ROCK2 (Cat #PV3759) were purchased from Invitrogen.
(§2) The working solution required for the assay was prepared with the appropriate reagents as described in the kinase assay kit instructions:
(§3) 1 mL of 1× Kinase Buffer contains 200 μL 5× Enzyme buffer, 5 μL 1M MgCl2 (Cat.M8266, Sigma), 1 μL 1M DTT (Cat.D5545, Sigma), 794 μL ddH2O.
(§4) The specific concentrations of STK-biotin substrate and ATP are shown in Table A. STK-biotin substrate and ATP were diluted with 1× kinase buffer to 2.5 times of the reaction concentration.
(§5) Concentrations of ROCK1/ROCK2 are shown in Table A. 5×ROCK1/ROCK2 Kinase working solution was prepared with 1× Kinase Buffer.
(§6) See Table A for the concentrations of Streptavidin-XL665 and STK Antibody-Cryptate in the reaction. 2× Streptavidin-XL665 and STK Antibody-Cryptate Working Solutions were prepared 5 minutes prior to the end of the kinase reaction using Detection Buffer from the kit.
(§7) A 100 μM compound mother solution was prepared using 1× kinase buffer containing 2.5% DMSO, and the mother solution was diluted 4-fold stepwise with the above DMSO-containing kinase buffer to obtain nine different concentrations of the compound solutions to be tested. In addition to the test compound wells, positive control wells (containing all reagents except the compounds) and negative control wells (containing all reagents except the compounds and kinase) were set up. 4 μL of the test compound solution was added to all reaction wells except the control wells and 4 μL of 2.5% DMSO solution was added to the control wells. Then 4 μL of previously prepared substrate and ATP working solution were added to all wells and mix well. Then, 2 μL/well of 5×ROCK1/ROCK2 kinase working solution (containing 2.5 ng ROCK1/ROCK2 kinase) was added to all reaction wells except negative control wells, and the negative control wells were made up to volume with 2 μL of 1× kinase buffer. Mix well, seal with plastic film and incubate at room temperature for 2 hours. Start preparing the assay solution 5 minutes before the end of the kinase reaction. After the end of the kinase reaction, 10 μL of prepared Streptavidin-XL665 and STK Antibody-Cryptate working solution were added to all reaction wells, the plates were sealed and mixed well, and then incubated at room temperature for 1 hour. Finally, the fluorescence signal was detected by SpectraMax i3x Multi-Mode Reader (Molecular Devices) (excitation wavelength is 320 nm, emission wavelength is 665 nm and 615 nm).
(§8) The inhibition rate in each well was calculated from the fluorescence intensity values of each well:
(§9) ER Emission Ratio, Emission light ratio=fluorescence intensity at 665 nm/fluorescence intensity at 615 nm;
(§10) ERcompound, ER of test compound wells; ERvehicle, ER of solvent (positive) control wells, ERblank, ER of blank (negative) control wells.
(§11) The graphs were plotted using the software GraphPad Prism 6.0, while the half inhibitory concentration (IC50) of each compound to be tested was obtained by fitting with Prism 6.0.

[3] = molecular target: T2, ROCK1 (Homo sapiens, UniProt Q13464); experiment: Kinase IC50 assay, HTRF kinEASE STK S2 kit, ROCK1; format: biochemical; conditions: ATP 1.5 μM, 2.5 ng/well enzyme, 120 min
T2 construct: purchased Invitrogen PV3691
Description: as §1, §2, §3, §4, §5, §6, §7, §8, §9, §10, §11

[4] = po, gavage 10 mg/kg, fasted overnight

T1 sequence (O75116 5-554 limits assumed): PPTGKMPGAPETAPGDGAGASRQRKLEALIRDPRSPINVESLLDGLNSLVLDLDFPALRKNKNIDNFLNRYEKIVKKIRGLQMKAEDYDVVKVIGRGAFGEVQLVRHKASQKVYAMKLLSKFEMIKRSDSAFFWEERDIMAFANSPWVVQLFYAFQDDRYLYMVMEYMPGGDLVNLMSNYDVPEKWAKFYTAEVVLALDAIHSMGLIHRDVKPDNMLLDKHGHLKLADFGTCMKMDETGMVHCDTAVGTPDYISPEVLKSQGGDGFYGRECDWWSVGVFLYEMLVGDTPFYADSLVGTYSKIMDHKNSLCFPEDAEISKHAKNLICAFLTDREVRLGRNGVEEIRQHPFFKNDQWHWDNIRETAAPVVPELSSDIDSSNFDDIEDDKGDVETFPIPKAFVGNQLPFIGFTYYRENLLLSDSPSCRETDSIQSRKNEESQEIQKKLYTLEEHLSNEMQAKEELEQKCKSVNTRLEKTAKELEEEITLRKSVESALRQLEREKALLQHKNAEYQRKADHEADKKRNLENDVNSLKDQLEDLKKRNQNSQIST
T2 sequence (Q13464 1-535 limits assumed): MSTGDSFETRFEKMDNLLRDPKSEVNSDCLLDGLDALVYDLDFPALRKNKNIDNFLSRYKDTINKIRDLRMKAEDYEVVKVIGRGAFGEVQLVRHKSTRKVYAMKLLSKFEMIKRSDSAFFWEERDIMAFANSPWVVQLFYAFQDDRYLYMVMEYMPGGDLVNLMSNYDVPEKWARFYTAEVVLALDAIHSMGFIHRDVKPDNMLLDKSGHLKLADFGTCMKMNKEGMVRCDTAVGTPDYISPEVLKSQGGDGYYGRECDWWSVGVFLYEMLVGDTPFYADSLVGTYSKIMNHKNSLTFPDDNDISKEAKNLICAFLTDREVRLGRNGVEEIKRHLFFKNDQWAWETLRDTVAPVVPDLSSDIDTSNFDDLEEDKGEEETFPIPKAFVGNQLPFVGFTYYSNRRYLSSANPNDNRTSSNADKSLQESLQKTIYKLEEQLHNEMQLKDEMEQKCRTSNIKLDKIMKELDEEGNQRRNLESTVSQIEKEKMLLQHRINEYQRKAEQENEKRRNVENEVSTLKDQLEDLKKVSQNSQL

- AUC(0-t) ([1]; intravenous injection 1 mg/kg): 1210 ng·h/mL
- Cmax ([1]; intravenous injection 1 mg/kg): 765 ng/mL
- Tmax ([1]; intravenous injection 1 mg/kg): 0.08 h
- half-life ([1]; intravenous injection 1 mg/kg): 2.05 h
- bioavailability ([1]; oral, gavage 10 mg/kg vs intravenous 1 mg/kg): 11.5%
- AUC(0-t) [1, 4]: 1400 ng·h/mL
- Cmax [1, 4]: 251 ng/mL
- Tmax [1, 4]: 1.33 h
- half-life [1, 4]: 3.47 h
- IC50 [2]: 0.104 µM
- IC50 [3]: > 100 µM
SMILES: Cn1c(C#Cc2nccc(Nc3ccc(-c4cn[nH]c4)cc3)n2)ccc1C(=O)N1CC(F)(F)C1 [Compound A1]
